A compilation of properties of binary mixtures (doi:10.1021/acs.iecr.1c02970)

Assay: xn = mol fraction of the nth substance listed
Conditions: 100 kPa

CC[n+]1ccn(C)c1.CS(=O)(=O)[O-] + O
Conditions | electrical conductivity [S/m] | speed of sound [m/s] | viscosity [mPa·s]
293.15 K, x1 = 0.002 | 0.693 | – | –
293.15 K, x1 = 0.0177 | – | – | 1.439
293.15 K, x1 = 0.0181 | – | 1596.2 | –
293.15 K, x1 = 0.028 | 4.07 | – | –
293.15 K, x1 = 0.0357 | – | – | 1.98
293.15 K, x1 = 0.0375 | – | 1686.1 | –
293.15 K, x1 = 0.0489 | 4.55 | – | –
293.15 K, x1 = 0.07 | 4.39 | – | –
293.15 K, x1 = 0.0749 | – | 1801.7 | –
293.15 K, x1 = 0.0945 | – | 1837.1 | –
293.15 K, x1 = 0.1089 | – | – | 5.395
293.15 K, x1 = 0.1122 | 3.62 | – | –
293.15 K, x1 = 0.113 | – | 1857.6 | –
293.15 K, x1 = 0.1833 | – | 1882.3 | –
293.15 K, x1 = 0.1848 | – | – | 10.55
293.15 K, x1 = 0.2034 | 2.29 | – | –
293.15 K, x1 = 0.2741 | – | 1871.1 | –
293.15 K, x1 = 0.3671 | – | 1850.8 | –
293.15 K, x1 = 0.3752 | 1.19 | – | –
293.15 K, x1 = 0.4263 | – | – | 34.52
293.15 K, x1 = 0.6064 | – | 1809.5 | –
293.15 K, x1 = 0.6951 | – | 1800.2 | –
293.15 K, x1 = 0.7708 | – | 1793 | –
293.15 K, x1 = 0.9157 | – | 1780.8 | –
293.15 K, x1 = 0.9339 | 0.201 | – | –
293.15 K, x1 = 0.9357 | – | – | 214.4
293.15 K, x2 = 0.0082 | – | 1779.6 | –
298.15 K, x1 = 0.0375 | – | 1686.1 | –
298.15 K, x1 = 0.056 | – | 1749 | –
298.15 K, x1 = 0.0749 | – | 1794.6 | –
298.15 K, x1 = 0.0945 | – | 1828.1 | –
298.15 K, x1 = 0.113 | – | 1847.4 | –
298.15 K, x1 = 0.2741 | – | 1859.1 | –
298.15 K, x1 = 0.3671 | – | 1839 | –
298.15 K, x1 = 0.489 | – | 1815.1 | –
298.15 K, x1 = 0.6064 | – | 1797 | –
298.15 K, x1 = 0.6951 | – | 1787.9 | –
298.15 K, x1 = 0.9157 | – | 1767.6 | –
298.15 K, x2 = 0.0082 | – | 1766.9 | –
303.15 K, x1 = 0.002 | 0.852 | – | –
303.15 K, x1 = 0.0165 | 4.03 | – | –
303.15 K, x1 = 0.0181 | – | 1607.4 | –
303.15 K, x1 = 0.028 | 5.09 | – | –
303.15 K, x1 = 0.0357 | – | – | 1.541
303.15 K, x1 = 0.0375 | – | 1685.5 | –
303.15 K, x1 = 0.0489 | 5.75 | – | –
303.15 K, x1 = 0.0674 | – | – | 2.309
303.15 K, x1 = 0.07 | 5.61 | – | –
303.15 K, x1 = 0.0749 | – | 1787.3 | –
303.15 K, x1 = 0.0945 | – | 1818.7 | –
303.15 K, x1 = 0.1089 | – | – | 3.994
303.15 K, x1 = 0.113 | – | 1837.3 | –
303.15 K, x1 = 0.1833 | – | 1859.5 | –
303.15 K, x1 = 0.1848 | – | – | 7.58
303.15 K, x1 = 0.2034 | 3.13 | – | –
303.15 K, x1 = 0.2741 | – | 1847.2 | –
303.15 K, x1 = 0.3671 | – | 1827.1 | –
303.15 K, x1 = 0.3752 | 1.67 | – | –
303.15 K, x1 = 0.4263 | – | – | 23.25
303.15 K, x1 = 0.489 | – | 1802.7 | –
303.15 K, x1 = 0.6951 | – | 1775.8 | –
303.15 K, x1 = 0.7708 | – | 1767.9 | –
303.15 K, x1 = 0.9157 | – | 1755.3 | –
303.15 K, x1 = 0.9339 | 0.351 | – | –
303.15 K, x2 = 0.0082 | – | 1754.4 | –
308.15 K, x1 = 0.0181 | – | 1611.3 | –
308.15 K, x1 = 0.0375 | – | 1684.1 | –
308.15 K, x1 = 0.056 | – | 1739.2 | –
308.15 K, x1 = 0.0749 | – | 1779.7 | –
308.15 K, x1 = 0.113 | – | 1827 | –
308.15 K, x1 = 0.1833 | – | 1848.4 | –
308.15 K, x1 = 0.2741 | – | 1835.3 | –
308.15 K, x1 = 0.3671 | – | 1815.2 | –
308.15 K, x1 = 0.489 | – | 1790.4 | –
308.15 K, x1 = 0.6951 | – | 1763.8 | –
308.15 K, x1 = 0.7708 | – | 1755.8 | –
308.15 K, x1 = 0.9157 | – | 1743.1 | –
308.15 K, x2 = 0.0082 | – | 1742.1 | –
313.15 K, x1 = 0.002 | 1.02 | – | –
313.15 K, x1 = 0.0165 | 4.87 | – | –
313.15 K, x1 = 0.0177 | – | – | 0.917
313.15 K, x1 = 0.0181 | – | 1614.1 | –
313.15 K, x1 = 0.028 | 6.18 | – | –
313.15 K, x1 = 0.0375 | – | 1682.2 | –
313.15 K, x1 = 0.0489 | 7.04 | – | –
313.15 K, x1 = 0.056 | – | 1733.8 | –
313.15 K, x1 = 0.0674 | – | – | 1.819
313.15 K, x1 = 0.07 | 6.95 | – | –
313.15 K, x1 = 0.0749 | – | 1771.7 | –
313.15 K, x1 = 0.0945 | – | 1799.6 | –
313.15 K, x1 = 0.1122 | 6 | – | –
313.15 K, x1 = 0.113 | – | 1816.6 | –
313.15 K, x1 = 0.1833 | – | 1836.9 | –
313.15 K, x1 = 0.1848 | – | – | 5.649
313.15 K, x1 = 0.2034 | 4.08 | – | –
313.15 K, x1 = 0.2741 | – | 1823.4 | –
313.15 K, x1 = 0.3671 | – | 1803.3 | –
313.15 K, x1 = 0.4263 | – | – | 16.5
313.15 K, x1 = 0.489 | – | 1778.5 | –
313.15 K, x1 = 0.6064 | – | 1760.4 | –
313.15 K, x1 = 0.6951 | – | 1751.7 | –
313.15 K, x1 = 0.7708 | – | 1743.9 | –
313.15 K, x1 = 0.9339 | 0.558 | – | –
313.15 K, x1 = 0.9357 | – | – | 68.4
313.15 K, x2 = 0.0082 | – | 1730 | –
